“Also recorded” adds a separate entry of the source.

Test [1] relates to closed head injury. Briefly: Mouse model of closed head injury, Neurological Severity Score (NSS). It is filed as in vivo. Particulars: subcutaneous 0.751 μg/gr body weight 15 min after injury, up to 27 days. An excerpt: Brain injury is known to disrupt the blood-brain barrier and to induce edema and release auto-destructive factors that produce delayed neuronal damage and neuronal cell death. An experimental model of […] (CHI) in the rat and mouse has been developed and studied mechanistically (Beni-Adani et al 2001; Chen et al 1996). In the present study, CHI was induced under ether anesthesia by allowing a metal rod (333 g) to fall over the exposed skull covering the left hemisphere in the midcornal plane of a 35-45 g Mouse. […] Neurobehavioral evaluations were performed over the next 27 d.
A Neurological Scoring System (NSS) was used to determine ability to perform 10 different behavioral tasks, involving motor ability, balance, and alertness of the mice (Table 4). One point is assigned for failing to perform each task; thus, a normal uninjured mouse scores 0. Injury severity is defined by initial NSS, which is evaluated 1 h post-CHI and referred to as “NSS1.” This value is also a reliable predictor of clinical outcome, with fatal or near-fatal injury corresponding to NSS1 of 7-8; moderate injury to NSS1 of 5-6, and mild injury to NSS1 of <4.

For test [2], the target named is TRPM7 (Mus musculus, UniProt Q923J1). The following applies: 500 μM.
Chain of TRPM7 (Mus musculus, UniProt Q923J1) (Q923J1 whole entry): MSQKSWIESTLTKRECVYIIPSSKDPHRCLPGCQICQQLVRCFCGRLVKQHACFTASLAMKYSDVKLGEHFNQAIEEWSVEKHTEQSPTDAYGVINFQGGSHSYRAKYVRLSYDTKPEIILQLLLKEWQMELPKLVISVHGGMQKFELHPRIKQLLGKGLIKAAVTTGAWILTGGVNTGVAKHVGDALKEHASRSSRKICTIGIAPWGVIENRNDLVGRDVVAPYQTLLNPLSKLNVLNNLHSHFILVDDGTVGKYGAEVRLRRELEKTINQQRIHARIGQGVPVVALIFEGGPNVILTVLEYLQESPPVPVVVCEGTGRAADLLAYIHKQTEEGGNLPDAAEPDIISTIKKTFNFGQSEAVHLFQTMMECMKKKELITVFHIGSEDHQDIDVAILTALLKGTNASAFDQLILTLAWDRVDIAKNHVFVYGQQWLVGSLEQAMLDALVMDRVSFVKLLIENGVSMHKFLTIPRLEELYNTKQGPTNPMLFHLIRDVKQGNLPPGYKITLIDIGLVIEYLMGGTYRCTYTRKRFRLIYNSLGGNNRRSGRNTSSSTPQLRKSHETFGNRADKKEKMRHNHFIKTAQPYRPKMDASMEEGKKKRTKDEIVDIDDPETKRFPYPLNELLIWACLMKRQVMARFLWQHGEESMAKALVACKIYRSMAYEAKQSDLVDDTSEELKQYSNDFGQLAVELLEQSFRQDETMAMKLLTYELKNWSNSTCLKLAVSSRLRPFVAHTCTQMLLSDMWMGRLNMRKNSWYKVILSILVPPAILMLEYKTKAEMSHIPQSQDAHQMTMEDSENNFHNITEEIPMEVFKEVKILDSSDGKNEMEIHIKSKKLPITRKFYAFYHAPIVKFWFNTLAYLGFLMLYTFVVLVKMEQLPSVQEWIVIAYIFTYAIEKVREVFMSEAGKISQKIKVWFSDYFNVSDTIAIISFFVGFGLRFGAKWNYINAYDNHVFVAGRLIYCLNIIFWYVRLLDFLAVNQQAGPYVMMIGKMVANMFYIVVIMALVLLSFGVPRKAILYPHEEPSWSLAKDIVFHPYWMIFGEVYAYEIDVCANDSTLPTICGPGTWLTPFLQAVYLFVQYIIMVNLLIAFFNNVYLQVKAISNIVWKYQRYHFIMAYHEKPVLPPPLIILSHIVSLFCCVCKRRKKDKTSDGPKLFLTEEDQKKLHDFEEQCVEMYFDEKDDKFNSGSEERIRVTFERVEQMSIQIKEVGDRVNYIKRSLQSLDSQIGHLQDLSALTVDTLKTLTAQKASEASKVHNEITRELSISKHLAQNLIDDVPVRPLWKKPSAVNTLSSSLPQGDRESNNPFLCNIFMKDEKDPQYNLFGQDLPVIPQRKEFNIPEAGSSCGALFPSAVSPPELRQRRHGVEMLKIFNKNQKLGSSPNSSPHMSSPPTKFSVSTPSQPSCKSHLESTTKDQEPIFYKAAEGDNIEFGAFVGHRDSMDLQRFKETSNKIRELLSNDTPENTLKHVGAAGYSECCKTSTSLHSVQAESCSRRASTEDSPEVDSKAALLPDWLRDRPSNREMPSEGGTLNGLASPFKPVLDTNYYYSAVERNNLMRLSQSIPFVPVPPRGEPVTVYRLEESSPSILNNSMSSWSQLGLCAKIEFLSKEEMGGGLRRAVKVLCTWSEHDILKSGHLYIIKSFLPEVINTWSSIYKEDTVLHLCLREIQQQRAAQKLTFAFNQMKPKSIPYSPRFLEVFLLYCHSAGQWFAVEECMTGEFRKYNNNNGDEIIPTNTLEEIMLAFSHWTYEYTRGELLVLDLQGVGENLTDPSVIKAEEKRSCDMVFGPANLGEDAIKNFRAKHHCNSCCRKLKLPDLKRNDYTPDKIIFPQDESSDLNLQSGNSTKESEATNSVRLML
Test [3] concerns TRPM7. The following applies: 500 μM.
The subject of test [4] is TRPV3. The following applies: literature; cited from earlier work.
The target of test [5] is TRPM8 (Homo sapiens, UniProt Q7Z2W7). The following applies: literature (Vogt-Eisele 2007); cited from earlier work.
Chain of TRPM8 (Q7Z2W7 whole entry, species assumed): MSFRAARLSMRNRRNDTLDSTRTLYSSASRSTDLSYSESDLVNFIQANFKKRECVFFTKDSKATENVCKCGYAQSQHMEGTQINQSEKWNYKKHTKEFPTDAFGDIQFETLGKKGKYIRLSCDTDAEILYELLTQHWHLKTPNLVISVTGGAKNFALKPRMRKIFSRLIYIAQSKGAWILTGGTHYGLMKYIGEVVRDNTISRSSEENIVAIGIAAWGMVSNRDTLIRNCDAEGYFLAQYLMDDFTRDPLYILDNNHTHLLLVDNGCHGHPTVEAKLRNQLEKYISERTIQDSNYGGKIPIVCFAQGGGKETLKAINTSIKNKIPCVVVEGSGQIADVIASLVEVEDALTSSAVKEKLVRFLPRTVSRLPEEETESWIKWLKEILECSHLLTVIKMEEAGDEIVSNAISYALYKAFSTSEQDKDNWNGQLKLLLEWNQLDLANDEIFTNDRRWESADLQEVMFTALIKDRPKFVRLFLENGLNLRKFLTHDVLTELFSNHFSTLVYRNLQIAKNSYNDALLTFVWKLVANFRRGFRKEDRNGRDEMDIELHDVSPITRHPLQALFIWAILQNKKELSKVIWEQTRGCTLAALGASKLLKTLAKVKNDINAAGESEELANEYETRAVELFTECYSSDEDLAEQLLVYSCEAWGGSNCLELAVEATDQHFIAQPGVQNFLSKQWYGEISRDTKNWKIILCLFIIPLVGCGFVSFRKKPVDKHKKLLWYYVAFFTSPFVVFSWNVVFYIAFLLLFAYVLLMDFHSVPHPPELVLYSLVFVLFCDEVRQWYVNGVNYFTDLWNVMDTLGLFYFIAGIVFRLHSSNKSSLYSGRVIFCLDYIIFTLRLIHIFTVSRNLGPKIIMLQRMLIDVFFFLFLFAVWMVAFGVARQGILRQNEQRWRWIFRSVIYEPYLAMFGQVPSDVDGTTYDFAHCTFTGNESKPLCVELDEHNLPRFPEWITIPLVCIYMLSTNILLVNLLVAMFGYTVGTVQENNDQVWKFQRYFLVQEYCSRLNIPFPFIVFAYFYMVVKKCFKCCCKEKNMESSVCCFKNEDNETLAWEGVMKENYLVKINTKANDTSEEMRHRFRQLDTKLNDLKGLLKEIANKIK

Turning to `Cc1ccc(C(C)C)cc1O` [Compound IX, 5-Isopropyl-2-methylphenol], in test [1], the “NSS recovery after closed head injury vs saline” value is “NSS scores dropped significantly more; also recorded: significant protective effect from brain damage”. In addition, in test [2] (30 APs@1 Hz), the “Effect on vesicle release in TRPM7-GFP-expressing neurons” value is “significantly decreased vesicle release”. Further, the “ΔF median of boutons after compound application” value turned out to be 75 arbitrary units in test [2] (TRPM7-GFP-expressing neurons, 73 before) and 87 arbitrary units in test [3] (control neurons, 88 before). In addition, the “Number of FM-detectable boutons after compound application” value amounted to 318 in test [2] (TRPM7-GFP-expressing neurons, 578 before) and 845 in test [3] (control neurons, 764 before). Moreover, the “Effect on presynaptic activity in control neurons” value in test [3] (neurons lacking TRPM7-GFP) is listed as “did not affect presynaptic activity”. In addition, the “Effect on vesicle release in control neurons” value in test [3] (neurons lacking TRPM7-GFP) was “did not alter vesicle release”. The TRPV3 activation result in test [4] was “believed to activate TRPV3”. Further, the “Effect on TRPM8” value in test [5] is on record as “only a minimal effect on TRPM8”.

The record behind these values is US20110281949A1, “METHODS AND COMPOSITIONS FOR TREATING NEURONAL DAMAGE AND MODULATING TRANSIENT RECEPTOR POTENTIAL CHANNELS” (priority 2008, published 2011).
